Drawing on patent US8501992B2, “Hydroxyphenyl sulfonamides as antiapoptotic bcl inhibitors” (Bristol-Myers Squibb Company, priority 2008, dated 2013), this text covers Ki for 17 compounds.

In general, Ki refers to a dissociation constant, usually derived from enzyme kinetics or from competition with a known ligand.

Common to all, as to type: binding
In one experiment the target is T1, Bcl-2 (Homo sapiens, UniProt P10415).
T1 construct: without their C-terminal transmembrane domain; GST; made in house
T1 sequence (P10415 1-211 limits assumed): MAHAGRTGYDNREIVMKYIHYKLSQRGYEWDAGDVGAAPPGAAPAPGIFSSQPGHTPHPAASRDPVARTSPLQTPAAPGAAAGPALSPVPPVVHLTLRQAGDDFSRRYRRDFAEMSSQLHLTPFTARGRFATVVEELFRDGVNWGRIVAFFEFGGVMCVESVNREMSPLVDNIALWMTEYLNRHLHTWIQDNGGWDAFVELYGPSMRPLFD
The experiment can be described thus: Bcl2/Bim fluorescence polarization assay (FPA). To be noted: BIM BH3 peptide 5 nM, Bcl-2 11 nM, Ki calculated from FPA data. The text has this: (§1) Compounds were profiled for their ability to disrupt in vitro binding interactions in fluorescence polarization assays (FPAs) using synthetic fluorochrome-labeled Bcl homology 3 (BH3) peptides derived from BIM [(FAM)-Ahx-[…]-NH2 (SEQ ID NO: 1) (GenBank Accession No. O43521)] or BAK [Ac-GQVGRQLAIIGE-LYS(FAM)-INR-NH2 (SEQ ID NO:2) (GenBank Accession No. Q16611) amino acid sequences and four bacterial recombinant proteins [Bcl-b (GenBank Accession No. Q9HD36), Bcl-2 (GenBank Accession No. P10415), Bcl-Xl (GenBank Accession No. Q07817), Mcl-1 (GenBank Accession No. Q07820)] without their C-terminal transmembrane domain. Proteins were purified from bacterial lysates using their glutathione S-transferase (GST)-tag (Bcl-b, Bcl-2, Mcl-1) or His6-tag (Bcl-Xl) and following one-step affinity chromatography procedures. Dissociation constants (Kd) for peptide binding protein were determined by fluorescence polarization in FPAs measuring BIM BH3 peptide binding Bcl-b, Mcl-1 or Bcl-2 protein or BAK BH3 peptide binding Bcl-Xl protein. The Kd values were generated by fitting the experimental data using a sigmoidal dose-response nonlinear regression model.
(§2) Compound inhibitory concentration values, IC50 (50% reduction in fluorescence polarization), were determined using fluorochrome-labeled BH3 peptides and recombinant Bcl proteins in fluorescence polarization assays (FPAs). Compounds diluted in DMSO (0.5 ul) were transferred (in duplicate) to individual wells of a 384-well plate. The fluorochrome-labeled peptide was added followed by recombinant protein addition. Each binding FPA reaction (50 ul) contained BIM BH3 peptide (5 nM) or BAK BH3 peptide (1.5 nM) and Bcl-b (40 nM), Mcl-1 (28 nM), Bcl-2 (11 nM) or Bcl-Xl. (5 nM) protein suspended in assay buffer [20 mM sodium phosphate, pH 7.4, 1 mM EDTA, 50 mM NaCl., 0.05% Pluronic F68]. Reaction mixtures were incubated at ambient temperature for 60 minutes prior to measuring polarization (mP) using an Analyst (LJL, Molecular Devices, Sunnyvale, Calif.) programmed to detect an emission wavelength of 530 nm after excitation (excitation wavelength=485 nm).
(§3) Competitive compound inhibition constants (Ki) were calculated using FPA experimental data and a mathematical equation, Ki=[I]50/([L]50/Kd+[P]0/Kd+1), where [I]50 denotes free inhibitor concentration at 50% inhibition, [L]50 is free labeled ligand concentration at 50% inhibition, [P]0 is free protein concentration at 0% inhibition, and Kd is the dissociation constant of the protein-ligand complex.

Another experiment concerns the target T2, Mcl-1 (Homo sapiens, UniProt Q07820).
T2 construct: without their C-terminal transmembrane domain; GST; made in house
The experiment can be described thus: Mcl-1/Bim fluorescence polarization assay (FPA). To be noted: BIM BH3 peptide 5 nM, Mcl-1 28 nM, Ki calculated from FPA data.
Source text: as §1, §2, §3

A further experiment deals with T3, Bcl-b (Homo sapiens, UniProt Q9HD36).
T3 construct: without their C-terminal transmembrane domain; GST; made in house
T3 sequence (Q9HD36 1-182 limits assumed): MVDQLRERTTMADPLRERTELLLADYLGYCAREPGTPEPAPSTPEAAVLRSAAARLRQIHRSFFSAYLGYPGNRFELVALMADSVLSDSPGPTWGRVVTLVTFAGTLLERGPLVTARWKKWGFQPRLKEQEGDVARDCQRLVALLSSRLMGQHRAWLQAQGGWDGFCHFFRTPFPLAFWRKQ
The experiment can be described thus: Bclb/Bim fluorescence polarization assay (FPA). To be noted: BIM BH3 peptide 5 nM, Bcl-b 40 nM, Ki calculated from FPA data.
Source text: as §1, §2, §3

T2 sequence (Q07820 1-327 limits assumed): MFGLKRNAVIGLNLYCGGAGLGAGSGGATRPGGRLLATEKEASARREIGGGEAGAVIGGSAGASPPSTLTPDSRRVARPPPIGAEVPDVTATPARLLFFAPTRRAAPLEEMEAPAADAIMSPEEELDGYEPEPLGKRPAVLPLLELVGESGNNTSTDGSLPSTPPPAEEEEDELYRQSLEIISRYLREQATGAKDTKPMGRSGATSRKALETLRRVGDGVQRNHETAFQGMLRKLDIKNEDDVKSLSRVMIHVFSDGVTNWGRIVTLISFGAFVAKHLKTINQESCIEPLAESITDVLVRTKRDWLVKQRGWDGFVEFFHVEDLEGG

Turning to `O=C(NCc1cccc(CN(Cc2ccc(F)cc2)S(=O)(=O)c2cc(Cl)cc(Cl)c2O)c1)c1cc(O)nc(O)c1` [Example 2, N-(3-((3,5-Dichloro-N-(4-fluorobenzyl)-2-hydroxyphenylsulfonamido)methyl)benzyl)-2,6-dihydroxyisonicotinamide], the figures for the Ki on Bcl-2, on Mcl-1 and at Bcl-b were 20 nM, 20 nM and 50 nM, respectively.

As to `N#Cc1ccc(S(=O)(=O)NCc2cccc(CN(Cc3ccc(-c4ccccc4)cc3)S(=O)(=O)c3cc(Cl)cc(Cl)c3O)c2)cc1` [Example 4, N-(Biphenyl-4-ylmethyl)-3,5-dichloro-N-(3-((4-cyanophenylsulfonamido)methyl)benzyl)-2-hydroxybenzenesulfonamide], the Ki is 60 nM on Bcl-2, 60 nM at Mcl-1 and 280 nM at Bcl-b.

Take `Cc1ccc(S(=O)(=O)N(Cc2cc(CN(Cc3ccc(F)cc3)S(=O)(=O)c3cc(Cl)cc(Cl)c3O)cc(Oc3ccc(F)cc3)c2)CC(C)C)cc1` [Example 8, 3,5-Dichloro-N-(4-fluorobenzyl)-N-(3-(4-fluorophenoxy)-5-((N-isobutyl-4-methylphenylsulfonamido)methyl)benzyl)-2-hydroxybenzenesulfonamide]: the Ki was 10 nM on Bcl-2, 40 nM on Mcl-1 and 100 nM on Bcl-b.

With `Cc1ccc(S(=O)(=O)N(Cc2ccc(F)cc2)Cc2cc(CNS(=O)(=O)c3cc(Cl)cc(Cl)c3O)cc(-c3ccc(F)cc3)c2)cc1` [Example 13, 3,5-Dichloro-N-((4′-fluoro-5-((N-(4-fluorobenzyl)-4-methylphenylsulfonamido)methyl)biphenyl-3-yl)methyl)-2-hydroxybenzenesulfonamide], the results for the Ki at Bcl-2, at Mcl-1 and on Bcl-b were 20 nM, 30 nM and 90 nM, respectively.

For the compound `CC(C)CN(Cc1cc(Cl)cc(CN(CC(C)C)S(=O)(=O)c2cc(Cl)cc(Cl)c2O)c1)S(=O)(=O)c1cccnc1` [Example 15], the Ki on Bcl-2 was 10 nM; on Mcl-1 it was 10 nM; at Bcl-b, 80 nM.

Take `COc1ccc(S(N)(=O)=O)cc1C(=O)NCc1cccc(CN(Cc2ccc(-c3ccccc3)cc2)S(=O)(=O)c2cc(Cl)cc(Cl)c2O)c1` [Example 39, N-(3-((N-(biphenyl-4-ylmethyl)-3,5-dichloro-2-hydroxyphenyl-sulfonamido)methyl)benzyl)-2-methoxy-5-sulfamoylbenzamide]: the results for the Ki on Bcl-2, at Mcl-1 and on Bcl-b were 153 nM, 207 nM and 289 nM, respectively.

Turning to `O=C(O)c1ccc(S(=O)(=O)NCc2cccc(CN(Cc3ccc(-c4ccccc4)cc3)S(=O)(=O)c3cc(Cl)cc(Cl)c3O)c2)cc1` [Example 49, 4-(N-(3-((N-(biphenyl-4-ylmethyl)-3,5-dichloro-2-hydroxyphenyl-sulfonamido)methyl)benzyl)sulfamoyl)benzoic acid], the results for the Ki at Bcl-2, at Mcl-1 and at Bcl-b were 347 nM, 204 nM and 138 nM, respectively.

As to `CS(=O)(=O)c1ccc(CN(Cc2cccc(CNS(=O)(=O)c3cc(Cl)cc(Cl)c3O)c2)S(=O)(=O)c2cc(Cl)cc(Cl)c2O)cc1` [Example 56, 3,5-dichloro-N-(3-((3,5-dichloro-2-hydroxyphenyl-sulfonamido)methyl)benzyl)-2-hydroxy-N-(4-(methylsulfonyl)benzyl) benzenesulfonamide], the Ki on Bcl-2 is 148 nM; on Mcl-1, 187 nM; at Bcl-b it was 103 nM.

With `CCN(CC)CCOc1ccc(CN(Cc2cccc(CNS(=O)(=O)c3cc(Cl)cc(Cl)c3O)c2)S(=O)(=O)c2cc(Cl)cc(Cl)c2O)cc1` [Example 61, 3,5-dichloro-N-(3-((3,5-dichloro-2-hydroxyphenylsulfonamido)methyl)benzyl)-N-(4-(2-(diethylamino)ethoxy)benzyl)-2-hydroxybenzenesulfonamide], the Ki at Bcl-2 was 500 nM; at Mcl-1, 1020 nM; at Bcl-b it was 133 nM.

Consider `O=S(=O)(NCc1cccc(CN(Cc2ccccc2SC(F)(F)F)S(=O)(=O)c2cc(Cl)cc(Cl)c2O)c1)c1cc(Cl)cc(Cl)c1O` [Example 64], for which the Ki is 96 nM on Bcl-2, 169 nM at Mcl-1 and 74 nM on Bcl-b.

As for `CC(C)CN(Cc1cc(Cl)cc(CN(CC(C)C)S(=O)(=O)c2cc(Cl)cc(Cl)c2O)c1)C(=O)c1ccc(SC(F)(F)F)cc1` [Example 71, N-(3-chloro-5-((3,5-dichloro-2-hydroxy-N-isobutylphenylsulfonamido)methyl)benzyl)-N-isobutyl-4-(trifluoromethylthio)benzamide], the figures for the Ki on Bcl-2, at Mcl-1 and at Bcl-b were 469 nM, 970 nM and 247 nM, respectively.

With `CC(C)CN(Cc1cc(Cl)cc(CN(CC(C)C)S(=O)(=O)c2cc(Cl)cc(Cl)c2O)c1)C(=O)c1cccc(SC(F)(F)F)c1` [Example 72, N-(3-chloro-5-((3,5-dichloro-2-hydroxy-N-isobutylphenylsulfonamido)methyl)benzyl)-N-isobutyl-3-(trifluoromethylthio)benzamide], the Ki was 349 nM at Bcl-2, 1150 nM at Mcl-1 and 182 nM at Bcl-b.

Regarding `CC(C)CN(Cc1cc(Cl)cc(CN(CC(C)C)S(=O)(=O)c2cc(Cl)cc(Cl)c2O)c1)C(=O)c1cccc(S(=O)(=O)C(F)(F)F)c1` [Example 73, N-(3-chloro-5-((3,5-dichloro-2-hydroxy-N-isobutylphenylsulfonamido)methyl)benzyl)-N-isobutyl-3-(trifluoromethylsulfonyl)benzamide], the Ki is 319 nM on Bcl-2, 384 nM at Mcl-1 and 144 nM at Bcl-b.

Consider `CS(=O)(=O)c1cccc(CN(Cc2cc(CNC(=O)c3cccc(Oc4ccccc4)c3)cc(Oc3ccc(F)cc3)c2)S(=O)(=O)c2cc(Cl)cc(Cl)c2O)c1` [Example 77, N-(3-((3,5-dichloro-2-hydroxy-N-(3-(methylsulfonyl)benzyl)phenylsulfonamido)methyl)-5-(4-fluorophenoxy)benzyl)-3-phenoxybenzamide], for which the Ki on Bcl-2 was 133 nM; on Mcl-1 it was 194 nM; on Bcl-b, 77 nM.

For the compound `O=S(=O)(c1cc(Cl)cc(Cl)c1)N(Cc1ccc(F)cc1)Cc1cccc(CN(Cc2ccc(F)cc2)S(=O)(=O)c2cc(Cl)cc(Cl)c2O)n1` [Example 91, 3,5-dichloro-N-((6-((3,5-dichloro-N-(4-fluorobenzyl)phenylsulfonamido)methyl)pyridin-2-yl)methyl)-N-(4-fluorobenzyl)-2-hydroxybenzenesulfonamide], the Ki was 42 nM at Bcl-2, 52 nM on Mcl-1 and 33 nM at Bcl-b.

Consider `O=S(=O)(c1cc(Cl)cc(Cl)c1)N(Cc1ccc(F)cc1)Cc1cccc(CN(Cc2ccc(F)cc2)S(=O)(=O)c2cc(Cl)cc(Cl)c2O)[n+]1[O-]` [Example 92, 2-((3,5-dichloro-N-(4-fluorobenzyl)-2-hydroxyphenylsulfonamido)methyl)-6-((3,5-dichloro-N-(4-fluorobenzyl)phenylsulfonamido)methyl)pyridine 1-oxide], for which the Ki on Bcl-2 was 46 nM; at Mcl-1, 60 nM; on Bcl-b, 12 nM.

Take `O=S(=O)(c1cccc(CN(Cc2ccc(F)cc2)S(=O)(=O)c2cc(Cl)cc(Cl)c2O)c1)N(Cc1ccc(F)cc1)Cc1cc(Cl)cc(Cl)c1` [Example 94, 3,5-Dichloro-N-(3-(N-(3,5-dichlorobenzyl)-N-(4-fluorobenzyl)sulfamoyl)benzyl)-N-(4-fluorobenzyl)-2-hydroxybenzenesulfonamide]: the Ki at Bcl-2 is 60 nM; at Mcl-1, 60 nM; on Bcl-b it was 40 nM.
